Assay results from PubChem BioAssay AID328 (DTP/NCI, 2004).
Values joined by “and” are separate entries in the source; they are usually repeats but may differ in a detail not shown here. Identical values can stand only once. Toxic doses and inconclusive results are not listed. Residues, ends and D or L forms follow the SMILES beside them.

System: BDF1 mice, P388 leukemia ip, median survival T/C
Test: NCI In Vivo Anticancer Drug Screen. Data for tumor model P388 Leukemia (intraperitoneal) in B6D2F1 (BDF1) mice
Details: endpoint: median survival time, higher = longer survival
Summary of the method: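 Steps: implant the tumour, treat one group with compound and another with vehicle, record survival, then divide treated by control.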

[1] = dose: 50.0 mg/kg/injection, schedule: Q01DX009 (ip), vehicle: saline with Tween-80
[2] = dose: 100.0 mg/kg/injection, schedule: Q01DX009 (ip), vehicle: saline with Tween-80
[3] = dose: 100.0 mg/kg/injection, schedule: Q04DX003 (ip), vehicle: saline with Tween-80
[4] = dose: 200.0 mg/kg/injection, schedule: Q01DX009 (ip), vehicle: saline with Tween-80
[5] = dose: 200.0 mg/kg/injection, schedule: Q04DX003 (ip), vehicle: saline with Tween-80
[6] = dose: 25.0 mg/kg/injection, schedule: Q01DX009 (ip), vehicle: saline with Tween-80
[7] = dose: 400.0 mg/kg/injection, schedule: Q01DX009 (ip), vehicle: saline with Tween-80
[8] = dose: 100.0 mg/kg/injection, schedule: Q01DX009 (ip), vehicle: Klucel (hydroxypropylcellulose) (HPC)
[9] = dose: 200.0 mg/kg/injection, schedule: Q01DX009 (ip), vehicle: Klucel (hydroxypropylcellulose) (HPC)
[10] = dose: 400.0 mg/kg/injection, schedule: Q01DX009 (ip), vehicle: Klucel (hydroxypropylcellulose) (HPC)
[11] = dose: 50.0 mg/kg/injection, schedule: Q04DX003 (ip), vehicle: saline with Tween-80
[12] = dose: 400.0 mg/kg/injection, schedule: Q04DX003 (ip), vehicle: saline with Tween-80
[13] = dose: 25.0 mg/kg/injection, schedule: Q01DX009 (ip), vehicle: Klucel (hydroxypropylcellulose) (HPC)
[14] = dose: 50.0 mg/kg/injection, schedule: Q01DX009 (ip), vehicle: Klucel (hydroxypropylcellulose) (HPC)
[15] = dose: 100.0 mg/kg/injection, schedule: Q04DX003 (ip), vehicle: Klucel (hydroxypropylcellulose) (HPC)
[16] = dose: 200.0 mg/kg/injection, schedule: Q04DX003 (ip), vehicle: Klucel (hydroxypropylcellulose) (HPC)
[17] = dose: 400.0 mg/kg/injection, schedule: Q04DX003 (ip), vehicle: Klucel (hydroxypropylcellulose) (HPC)

O=C(O)c1ccc(-c2ccccc2)cc1
T/C [1]: 100 % of control
T/C [2]: 104 % of control
T/C [3]: 104 % of control
T/C [4]: 95 % of control
T/C [5]: 104 % of control

Oc1ccc(Cl)c2cccnc12
T/C (dose: 12.5 mg/kg/injection, schedule: Q01DX010 (ip), vehicle: carboxymethylcellulose (CMC)): 104 % of control
T/C (dose: 25.0 mg/kg/injection, schedule: Q01DX010 (ip), vehicle: carboxymethylcellulose (CMC)): 104 % of control
T/C (dose: 50.0 mg/kg/injection, schedule: Q01DX010 (ip), vehicle: carboxymethylcellulose (CMC)): 109 % of control

N=C(N)N1CCNc2ccccc2C1
T/C [3]: 99 % of control

Cc1nc(N)nc2nc[nH]c12
T/C (dose: 12.5 mg/kg/injection, schedule: Q01DX009 (ip), vehicle: saline with Tween-80): 94 % of control
T/C [6]: 96 % of control
T/C [1]: 99 % of control
T/C [2]: 96 % of control

COc1ccc(S(=O)(=O)Nc2c([N+](=O)[O-])cc([N+](=O)[O-])c3ccccc23)cc1
T/C [6]: 102 % of control
T/C [1]: 100 % of control

CN(C)c1ccc(C(=C2C=CC(=[N+](C)C)C=C2)c2ccc(N(C)C)cc2)cc1
T/C (dose: 0.78 mg/kg/injection, schedule: Q01DX009 (ip), vehicle: saline): 107 % of control
T/C (dose: 1.56 mg/kg/injection, schedule: Q01DX009 (ip), vehicle: saline): 121 % of control
T/C (dose: 1.56 mg/kg/injection, schedule: Q04DX003 (ip), vehicle: saline): 122 % of control
T/C (dose: 3.12 mg/kg/injection, schedule: Q04DX003 (ip), vehicle: saline): 86 % of control

CCOCc1ccc(OCc2ccccc2)cc1
T/C [1]: 94 % of control
T/C [2]: 108 % of control
T/C [4]: 119 % of control

O=C1OCC2SC(c3ccccc3)NC12 (stereo unspecified)
T/C (dose: 100.0 mg/kg/injection, schedule: Q01DX001 (ip), vehicle: saline sonified): 95 % of control
T/C (dose: 200.0 mg/kg/injection, schedule: Q01DX001 (ip), vehicle: saline sonified): 113 % of control
T/C (dose: 400.0 mg/kg/injection, schedule: Q01DX001 (ip), vehicle: saline sonified): 95 % of control

Clc1c(Cl)c2c(Cl)c(Cl)c1C[P+](c1ccccc1)(c1ccccc1)CC[P+](c1ccccc1)(c1ccccc1)Cc1c(Cl)c(Cl)c(c(Cl)c1Cl)C[P+](c1ccccc1)(c1ccccc1)CC[P+](c1ccccc1)(c1ccccc1)C2
T/C (dose: 1.56 mg/kg/injection, schedule: Q01DX009 (ip), vehicle: water): 92 % of control
T/C (dose: 3.13 mg/kg/injection, schedule: Q01DX009 (ip), vehicle: water): 113 % of control
T/C (dose: 6.25 mg/kg/injection, schedule: Q01DX009 (ip), vehicle: water): 106 % of control

CCN(CC)CCNC1=CC(=S)NC(C)(C)C1
T/C [6]: 101 % of control
T/C [1]: 89 % of control and 111 % of control
T/C [2]: 100 % of control
T/C [4]: 88 % of control and 117 % of control

CC(=O)C/C(C)=N/NC(=O)c1ccncc1
T/C (dose: 150.0 mg/kg/injection, schedule: Q01DX009 (ip), vehicle: saline with Tween-80): 90 % of control

Nc1cc(=O)[nH][nH]1
T/C [2]: 104 % of control
T/C [4]: 109 % of control
T/C [7]: 122 % of control

CC/C(=C\c1cccc([N+](=O)[O-])c1)C(=O)O
T/C [8]: 100 % of control
T/C [9]: 100 % of control
T/C [10]: 109 % of control

CC(=O)CC(=O)Nc1ccc([N+](=O)[O-])cc1
T/C [11]: 109 % of control
T/C [3]: 109 % of control
T/C [5]: 95 % of control
T/C [12]: 100 % of control

Cc1ccc(CNc2ccc(C)c(Cl)c2)cc1
T/C (dose: 100.0 mg/kg/injection, schedule: Q01DX009 (ip), vehicle: other): 104 % of control
T/C (dose: 200.0 mg/kg/injection, schedule: Q01DX009 (ip), vehicle: other): 113 % of control
T/C (dose: 400.0 mg/kg/injection, schedule: Q01DX009 (ip), vehicle: other): 118 % of control

O=C(O)C1(c2ccccc2)CC1
T/C [2]: 109 % of control
T/C [4]: 90 % of control
T/C [7]: 90 % of control

CN(C)CCCNc1cc(/C=C/c2cccc3ccccc23)nc2ccccc12
T/C [1]: 95 % of control
T/C [2]: 88 % of control
T/C [4]: 101 % of control

CC(CCCC1SCC2NC(=O)NC21)C(=O)O (stereo unspecified)
T/C [8]: 102 % of control
T/C [9]: 91 % of control
T/C [10]: 98 % of control

CCn1cnc2c(SC)nc(N)nc21
T/C [13]: 110 % of control
T/C [14]: 105 % of control
T/C (dose: 50.0 mg/kg/injection, schedule: Q04DX003 (ip), vehicle: alcohol): 100 % of control
T/C (dose: 75.0 mg/kg/injection, schedule: Q04DX003 (ip), vehicle: Klucel (hydroxypropylcellulose) (HPC)): 104 % of control
T/C [8]: 100 % of control
T/C (dose: 100.0 mg/kg/injection, schedule: Q04DX003 (ip), vehicle: alcohol): 100 % of control
T/C (dose: 150.0 mg/kg/injection, schedule: Q04DX003 (ip), vehicle: Klucel (hydroxypropylcellulose) (HPC)): 100 % of control
T/C (dose: 200.0 mg/kg/injection, schedule: Q04DX003 (ip), vehicle: alcohol): 100 % of control
T/C (dose: 300.0 mg/kg/injection, schedule: Q04DX003 (ip), vehicle: Klucel (hydroxypropylcellulose) (HPC)): 109 % of control

CC(C)(O)c1cnc(OCc2ccccc2)nc1OCc1ccccc1
T/C (dose: 100.0 mg/kg/injection, schedule: Q01DX001 (ip), vehicle: Klucel (hydroxypropylcellulose) (HPC)): 109 % of control
T/C [8]: 95 % of control
T/C (dose: 200.0 mg/kg/injection, schedule: Q01DX001 (ip), vehicle: Klucel (hydroxypropylcellulose) (HPC)): 104 % of control
T/C [9]: 91 % of control
T/C (dose: 400.0 mg/kg/injection, schedule: Q01DX001 (ip), vehicle: Klucel (hydroxypropylcellulose) (HPC)): 95 % of control
T/C [10]: 86 % of control

CN1CCC(OC(=O)c2ccc3c(c2)OCO3)CC1
T/C (dose: 12.5 mg/kg/injection, schedule: Q04DX003 (ip), vehicle: saline with Tween-80): 100 % of control
T/C (dose: 25.0 mg/kg/injection, schedule: Q04DX003 (ip), vehicle: saline with Tween-80): 117 % of control
T/C [11]: 91 % of control

COC(=O)c1ccc(OS(=O)(=O)c2cccc([N+](=O)[O-])c2)cc1
T/C [2]: 88 % of control
T/C [15]: 100 % of control
T/C [4]: 100 % of control
T/C [16]: 100 % of control
T/C [7]: 88 % of control
T/C [17]: 100 % of control

CC(=O)O/N=C(/C)c1ccccc1
T/C (dose: 25.0 mg/kg/injection, schedule: Q04DX003 (ip), vehicle: saline sonified): 100 % of control
T/C (dose: 50.0 mg/kg/injection, schedule: Q04DX003 (ip), vehicle: saline sonified): 100 % of control
T/C (dose: 100.0 mg/kg/injection, schedule: Q04DX003 (ip), vehicle: saline sonified): 100 % of control

Cc1c(C(=O)CCl)c(=O)n(-c2ccccc2)n1C
T/C [13]: 100 % of control
T/C (dose: 25.0 mg/kg/injection, schedule: Q04DX003 (ip), vehicle: Klucel (hydroxypropylcellulose) (HPC)): 96 % of control
T/C [14]: 104 % of control
T/C (dose: 50.0 mg/kg/injection, schedule: Q04DX003 (ip), vehicle: Klucel (hydroxypropylcellulose) (HPC)): 100 % of control
T/C [8]: 91 % of control
T/C [15]: 100 % of control and 103 % of control

O=Cc1ccc(C(Cl)(Cl)Cl)cc1
T/C [1]: 92 % of control
T/C [4]: 122 % of control
T/C [12]: 163 % of control

OCC(F)(F)C(F)(F)C(F)(F)C(F)F
T/C [8]: 95 % of control
T/C [15]: 104 % of control
T/C [9]: 105 % of control
T/C [16]: 100 % of control
T/C [10]: 115 % of control
T/C [17]: 90 % of control

COC(=O)C1c2cc3c(cc2C(OC2OC(C)C(OC)C(C)(OC)C2OC)CC1(C)O)C(=O)c1c(O)cc2c(c1C3=O)OC1OC2(C)C(O)C([N+](C)(C)[O-])C1O (stereo unspecified)
T/C (dose: 3.13 mg/kg/injection, schedule: Q01DX010 (ip), vehicle: saline): 150 % of control
T/C (dose: 6.25 mg/kg/injection, schedule: Q01DX010 (ip), vehicle: saline): 165 % of control
T/C (dose: 12.5 mg/kg/injection, schedule: Q01DX010 (ip), vehicle: saline): 95 % of control

NC(=O)C(Cc1ccc(O)cc1)NC(=O)C(N)Cc1c[nH]c2ccccc12 (stereo not drawn) (H-Trp-Tyr-NH2; configuration not given here)
T/C (dose: 50.0 mg/kg/injection, schedule: Q01DX005 (ip), vehicle: saline): 92 % of control
T/C (dose: 100.0 mg/kg/injection, schedule: Q01DX005 (ip), vehicle: saline): 92 % of control
T/C (dose: 200.0 mg/kg/injection, schedule: Q01DX005 (ip), vehicle: saline): 87 % of control

COc1ccccc1NC(=O)Nc1ccc(C(=O)OCC(C)C)cc1
T/C [11]: 108 % of control
T/C [3]: 91 % of control
T/C [5]: 100 % of control
